Where two headings read alike, the source gives them in different places.
Legend:
Assay in all cases: NCI SRB assay
Assay type in all cases: cell-based, human
IGROV1 = details: IGROV1, 5-dose
RPMI-8226 = details: for CC50: read-out: LC50 (the source's name)
HCC-2998 = details: for CC50: read-out: LC50 (the source's name)
SF-268 = details: for CC50: read-out: LC50 (the source's name)
T-47D = details: for GI50 / TGI / CC50: 5-dose; for CC50: read-out: LC50 (the source's name)
BT-549 = system: BT-549
HOP-62 = system: HOP-62
NCI-H23 = system: NCI-H23
MALME-3M = details: for CC50: read-out: LC50 (the source's name)
M14 = details: for CC50: read-out: LC50 (the source's name)
U251 = details: for CC50: read-out: LC50 (the source's name)
OVCAR-4 = details: for CC50: read-out: LC50 (the source's name)
SK-MEL-28 = details: for CC50: read-out: LC50 (the source's name)
[1] = Homo sapiens, RPMI-8226, RPMI-8226, 5-dose
[2] = Homo sapiens, U-251, U251, 5-dose
[3] = Homo sapiens, OVCAR-4, OVCAR-4, 5-dose

Q: `Cc1ccc(-c2nc(Nc3ccccc3C(=O)O)c3ccccc3n2)cc1` [6b, 2-((2-(p-Tolyl)quinazolin-4-yl)amino)benzoic acid] was tested. Which TGI (IGROV1) did it give?
A: 87.1 µM

Q: What about the TGI (IGROV1; listed as D - 835857) of the same compound?
A: 8.71E-5 Molar

Q: What about the CC50 (IGROV1; read-out: LC50 (the source's name)) of the same compound?
A: < 100 µM

Q: And the GI50 (RPMI-8226; [1])?
A: 4.44 µM

Q: What about the CC50 (RPMI-8226; [1]) of the same compound?
A: > 100 µM

Q: And the GI% (RPMI-8226; RPMI-8226, 10 μM)?
A: 83%

Q: And the “Growth Percent” value (RPMI-8226; RPMI-8226, 1.00E-5 Molar)?
A: 17.08%

Q: And the GI50 (RPMI-8226; RPMI-8226, 5-dose)?
A: 4.4 µM

Q: What about the TGI (RPMI-8226; RPMI-8226, 5-dose) of the same compound?
A: <100 µM

Q: What about the TGI (RPMI-8226; RPMI-8226, 5-dose, listed as D - 835857) of the same compound?
A: > 1.00E-4 Molar

Q: What about the CC50 (RPMI-8226; RPMI-8226, 5-dose) of the same compound?
A: < 100 µM

Q: And the GI% (HCC-2998; HCC-2998, 10 μM)?
A: 95%

Q: And the “Growth Percent” value (HCC-2998; HCC-2998, 1.00E-5 Molar)?
A: 5.44%

Q: And the TGI (HCC-2998; HCC-2998, 5-dose)?
A: 36.0 µM

Q: And the TGI (HCC-2998; HCC-2998, 5-dose, listed as D - 835857)?
A: 3.60E-5 Molar

Q: And the CC50 (HCC-2998; HCC-2998, 5-dose)?
A: < 100 µM

Q: What about the CC50 (HCC-2998; Homo sapiens, HCC 2998, HCC-2998, 5-dose) of the same compound?
A: > 100 µM

Q: What about the GI50 (HCC-2998; Homo sapiens, HCC-2998, 5-dose) of the same compound?
A: 12.4 µM

Q: What about the CC50 (SF-268; Homo sapiens, SF-268, SF-268, 5-dose) of the same compound?
A: > 100 µM

Q: And the GI50 (SF-268; Homo sapiens, SF-268, 5-dose)?
A: 14.3 µM

Q: And the GI% (SF-268; SF-268, 10 μM)?
A: 89%

Q: What about the “Growth Percent” value (SF-268; SF-268, 1.00E-5 Molar) of the same compound?
A: 11.24%

Q: What about the TGI (SF-268; SF-268, 5-dose) of the same compound?
A: <100 µM

Q: What about the TGI (SF-268; SF-268, 5-dose, listed as D - 835857) of the same compound?
A: > 1.00E-4 Molar

Q: And the CC50 (SF-268; SF-268, 5-dose)?
A: < 100 µM

Q: And the GI% (T-47D; 10 μM)?
A: 89%

Q: What about the “Growth Percent” value (T-47D; 1.00E-5 Molar) of the same compound?
A: 10.72%

Q: What about the GI50 (T-47D) of the same compound?
A: 6.3 µM

Q: What about the TGI (T-47D) of the same compound?
A: 70.0 µM

Q: And the TGI (T-47D; listed as D - 835857)?
A: 7.00E-5 Molar

Q: What about the CC50 (T-47D) of the same compound?
A: < 100 µM

Q: What about the GI50 (T-47D; Homo sapiens, T47D) of the same compound?
A: 6.29 µM

Q: And the CC50 (T-47D; Homo sapiens, T47D)?
A: > 100 µM

Q: What about the GI% (BT-549; BT-549, 10 μM) of the same compound?
A: 123%

Q: What about the “Growth Percent” value (BT-549; BT-549, 1.00E-5 Molar) of the same compound?
A: -23.53%

Q: What about the TGI (BT-549; BT-549, 5-dose) of the same compound?
A: 33.8 µM

Q: What about the TGI (BT-549; BT-549, 5-dose, listed as D - 835857) of the same compound?
A: 3.38E-5 Molar

Q: What about the GI50 (BT-549; Homo sapiens, BT-549, 5-dose) of the same compound?
A: 14.6 µM

Q: And the CC50 (BT-549; Homo sapiens, BT-549, 5-dose, read-out: LC50 (the source's name))?
A: 78.1 µM

Q: And the GI% (HOP-62; HOP-62, 10 μM)?
A: 72%

Q: And the “Growth Percent” value (HOP-62; HOP-62, 1.00E-5 Molar)?
A: 28.29%

Q: And the LC50 (HOP-62; HOP-62, 5-dose)?
A: < 100 µM

Q: And the TGI (HOP-62; HOP-62, 5-dose)?
A: 33.7 µM

Q: What about the TGI (HOP-62; HOP-62, 5-dose, listed as D - 835857) of the same compound?
A: 3.37E-5 Molar

Q: And the LC50 (HOP-62; Homo sapiens, HOP-62, HOP-62, 5-dose)?
A: > 100 µM

Q: And the GI50 (HOP-62; Homo sapiens, HOP-62, 5-dose)?
A: 10.8 µM

Q: And the LC50 (NCI-H23; Homo sapiens, NCI-H23, NCI-H23, 5-dose)?
A: > 100 µM

Q: What about the GI50 (NCI-H23; Homo sapiens, NCI-H23, 5-dose) of the same compound?
A: 15.7 µM

Q: What about the GI% (NCI-H23; NCI-H23, 10 μM) of the same compound?
A: 104%

Q: What about the “Growth Percent” value (NCI-H23; NCI-H23, 1.00E-5 Molar) of the same compound?
A: -4.11%

Q: And the LC50 (NCI-H23; NCI-H23, 5-dose)?
A: < 100 µM

Q: What about the TGI (NCI-H23; NCI-H23, 5-dose) of the same compound?
A: 44.4 µM

Q: And the TGI (NCI-H23; NCI-H23, 5-dose, listed as D - 835857)?
A: 4.44E-5 Molar

Q: And the GI% (MALME-3M; 10 μM)?
A: 80%

Q: What about the “Growth Percent” value (MALME-3M; 1.00E-5 Molar) of the same compound?
A: 19.56%

Q: And the TGI (MALME-3M; 5-dose)?
A: 64.5 µM

Q: And the TGI (MALME-3M; 5-dose, listed as D - 835857)?
A: 6.45E-5 Molar

Q: What about the CC50 (MALME-3M; 5-dose) of the same compound?
A: < 100 µM

Q: What about the GI50 (MALME-3M; Homo sapiens, 5-dose) of the same compound?
A: 15.6 µM

Q: And the CC50 (MALME-3M; Homo sapiens, Malme-3M, 5-dose)?
A: > 100 µM

Q: And the CC50 (M14; Homo sapiens, M14, M14, 5-dose)?
A: > 100 µM

Q: And the GI50 (M14; Homo sapiens, M14, 5-dose)?
A: 15.5 µM

Q: What about the GI% (M14; M14, 10 μM) of the same compound?
A: 87%

Q: And the “Growth Percent” value (M14; M14, 1.00E-5 Molar)?
A: 12.58%

Q: What about the TGI (M14; M14, 5-dose) of the same compound?
A: 77.4 µM

Q: What about the TGI (M14; M14, 5-dose, listed as D - 835857) of the same compound?
A: 7.74E-5 Molar

Q: What about the CC50 (M14; M14, 5-dose) of the same compound?
A: < 100 µM

Q: What about the GI50 (U251; [2]) of the same compound?
A: 5.58 µM

Q: What about the CC50 (U251; [2]) of the same compound?
A: > 100 µM

Q: And the GI% (U251; U251, 10 μM)?
A: 82%

Q: And the “Growth Percent” value (U251; U251, 1.00E-5 Molar)?
A: 18.45%

Q: And the GI50 (U251; U251, 5-dose)?
A: 5.6 µM

Q: What about the TGI (U251; U251, 5-dose) of the same compound?
A: 35.0 µM

Q: What about the TGI (U251; U251, 5-dose, listed as D - 835857) of the same compound?
A: 3.50E-5 Molar

Q: And the CC50 (U251; U251, 5-dose)?
A: < 100 µM

Q: What about the GI50 (OVCAR-4; [3]) of the same compound?
A: 8.77 µM

Q: What about the CC50 (OVCAR-4; [3]) of the same compound?
A: > 100 µM

Q: What about the GI% (OVCAR-4; OVCAR-4, 10 μM) of the same compound?
A: 78%

Q: And the “Growth Percent” value (OVCAR-4; OVCAR-4, 1.00E-5 Molar)?
A: 21.83%

Q: And the GI50 (OVCAR-4; OVCAR-4, 5-dose)?
A: 8.8 µM

Q: And the TGI (OVCAR-4; OVCAR-4, 5-dose)?
A: <100 µM

Q: And the TGI (OVCAR-4; OVCAR-4, 5-dose, listed as D - 835857)?
A: > 1.00E-4 Molar

Q: What about the CC50 (OVCAR-4; OVCAR-4, 5-dose) of the same compound?
A: < 100 µM

Q: What about the CC50 (SK-MEL-28; Homo sapiens, SK-MEL-28, SK-MEL-28, 5-dose) of the same compound?
A: > 100 µM

Q: And the GI50 (SK-MEL-28; Homo sapiens, SK-MEL-28, 5-dose)?
A: 15.9 µM

Q: And the GI% (SK-MEL-28; SK-MEL-28, 10 μM)?
A: 71%

Q: What about the “Growth Percent” value (SK-MEL-28; SK-MEL-28, 1.00E-5 Molar) of the same compound?
A: 28.75%

Q: And the TGI (SK-MEL-28; SK-MEL-28, 5-dose)?
A: 97.4 µM

Q: And the TGI (SK-MEL-28; SK-MEL-28, 5-dose, listed as D - 835857)?
A: 9.74E-5 Molar

Q: And the CC50 (SK-MEL-28; SK-MEL-28, 5-dose)?
A: < 100 µM

From paper PMC10035947, “Development of novel anilinoquinazoline-based carboxylic acids as non-classical carbonic anhydrase IX and XII inhibitors” (Journal of Enzyme Inhibition and Medicinal Chemistry, 2023)
